Biological target: T1, human parathyroid cell Ca2+ receptor (hPCaR) (Homo sapiens, UniProt P41180)
T1 construct: expressed in transfected cells
T1 sequence (P41180 20-1078): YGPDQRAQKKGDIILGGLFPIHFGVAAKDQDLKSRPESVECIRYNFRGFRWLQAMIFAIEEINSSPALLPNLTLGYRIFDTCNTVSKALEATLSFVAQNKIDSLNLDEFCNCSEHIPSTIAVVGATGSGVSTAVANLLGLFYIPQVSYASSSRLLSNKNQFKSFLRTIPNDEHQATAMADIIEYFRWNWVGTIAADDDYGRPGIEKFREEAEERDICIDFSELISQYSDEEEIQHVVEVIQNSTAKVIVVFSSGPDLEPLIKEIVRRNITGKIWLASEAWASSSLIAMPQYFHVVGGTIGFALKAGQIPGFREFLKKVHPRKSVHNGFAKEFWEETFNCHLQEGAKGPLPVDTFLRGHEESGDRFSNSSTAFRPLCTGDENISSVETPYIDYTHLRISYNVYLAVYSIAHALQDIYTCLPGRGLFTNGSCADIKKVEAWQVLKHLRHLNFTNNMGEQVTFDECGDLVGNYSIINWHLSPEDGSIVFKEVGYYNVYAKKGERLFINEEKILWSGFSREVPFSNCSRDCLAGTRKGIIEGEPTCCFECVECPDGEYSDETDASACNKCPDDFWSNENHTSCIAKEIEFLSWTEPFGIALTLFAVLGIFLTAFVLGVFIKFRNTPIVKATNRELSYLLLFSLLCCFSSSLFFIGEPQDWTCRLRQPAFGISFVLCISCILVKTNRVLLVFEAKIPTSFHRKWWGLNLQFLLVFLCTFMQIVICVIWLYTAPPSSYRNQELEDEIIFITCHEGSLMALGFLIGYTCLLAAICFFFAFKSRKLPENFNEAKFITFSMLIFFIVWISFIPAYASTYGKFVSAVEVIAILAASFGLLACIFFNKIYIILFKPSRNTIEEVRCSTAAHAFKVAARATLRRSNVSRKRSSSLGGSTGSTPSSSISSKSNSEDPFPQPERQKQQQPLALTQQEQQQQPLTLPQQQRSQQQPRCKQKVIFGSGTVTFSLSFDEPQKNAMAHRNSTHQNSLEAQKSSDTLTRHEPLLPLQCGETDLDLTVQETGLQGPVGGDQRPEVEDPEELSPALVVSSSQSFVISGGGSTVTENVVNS
Experiment: [Ca2+]i fluorescence assay in HEK 293 4.0-7 cells expressing hPCaR
Type: cell-based
Settings: buffer with 1 mM CaCl2
Experimental: The activities of the compounds of the present invention on calcium receptors were measured. In one embodiment, the measurement was performed in accordance with the method described in Example 4 of Nemeth et al., PCT/US95/13704 (International Publication No. WO96/12697) herein incorporated by reference.
A 4.0-kb NotI-HindIII fragment of the human parathyroid cell Ca^2+ receptor (hPCaR) cDNA was subcloned into the mammalian expression vector pCEP4 (Invitrogen) containing the hygromycin-resistant gene as a selectable marker. This plasmid was transfected into HEK 293 cells by calcium phosphate precipitation. Transfected cells were grown in Dulbecco's modified Eagle's medium containing 10% fetal bovine serum and hygromycin (200 μg/mL). Hygromycin-resistant colonies were subcloned and assayed for hPCaR mRNA by solution hybridization using a ^32P-labeled RNA probe complementary to the (4.0 kb) hPCaR sequence (Garrett, et al., J. Biol. Chem. 270, 12919-12925 (1995)). Clone 7 was used to assess the effects of compounds on [Ca^2+]i. This stably transfected cell line was termed HEK 293 4.0-7. For measurements of [Ca^2+]i, the cells were recovered from tissue culture flasks by brief treatment with Versene (Invitrogen; Containing 0.2 g/L EDTA.4Na in phosphate-buffered saline) and then seeded in collagen coated 384-well plates (BD Biosciences) at 20K cells per well in the growth media (same as above). Cells were grown in 37c TC incubator overnight. Then, the media was discarded and cells were loaded with 1× dye from Ca^2+ Assay Kit I (BD Biosciences) in parathyroid cell buffer (126 mM NaCl, 4 mM KCl, 1 mM MgSO4, 0.7 mM K2HPO4/KH2PO4, 20 mM HEPES.NaOH (pH 7.45)) containing 0.5% BSA and 1 mM CaCl2. Cells were loaded at room temperature for 90 minutes. Each test compound was added to the cells and the fluorescence was recorded by using excitation and emission wavelengths of 485 and 530 nm, respectively.

| Compound | EC50 [µM] |
| --- | --- |
| CS(=O)(=O)c1ccc(-c2csc(NC(=O)N(CCC(=O)O)CCC(c3ccccc3)c3ccccc3)n2)cc1 [Example 119, 3-(1-(3,3-diphenylpropyl)-3-(4-(4-(methylsulfonyl)phenyl)thiazol-2-yl)ureido)propanoic acid] | 0.1 to 1 |
| C[C@@H]1CNCCN1C(=O)CCN(CCC(c1ccccc1)c1ccccc1)C(=O)Nc1nc2ccccc2s1 [Example 120, (R)-3-(benzo[d]thiazol-2-yl)-1-(3,3-diphenylpropyl)-1-(3-(2-methylpiperazin-1-yl)-3-oxopropyl)urea] | 1 to 5 |
| O=C(O)CCN(CCC(c1ccccc1)c1ccccc1)C(=O)Nc1nc(-c2ccccc2)c(Cl)s1 [Example 121, 3-(3-(5-chloro-4-phenylthiazol-2-yl)-1-(3,3-diphenylpropyl)ureido)propanoic acid] | 1 to 5 |
| CC(CN(CCC(c1ccccc1)c1ccccc1)C(=O)Nc1nc2ccccc2s1)C(=O)O (stereo not drawn) [Example 122, 3-(3-(benzo[d]thiazol-2-yl)-1-(3,3-diphenylpropyl)ureido)-2-methylpropanoic acid] | 1 to 5 |
| C[C@H]1CNCCN1C(=O)CCN(CCC(c1ccccc1)c1ccccc1)C(=O)Nc1nc2ccccc2s1 [Example 123, (S)-3-(benzo[d]thiazol-2-yl)-1-(3,3-diphenylpropyl)-1-(3-(2-methylpiperazin-1-yl)-3-oxopropyl)urea] | 1 to 5 |
| C[C@@H]1CN(C(=O)CCN(CCC(c2ccccc2)c2ccccc2)C(=O)Nc2nc3ccccc3s2)CCN1 [Example 125, (R)-3-(benzo[d]thiazol-2-yl)-1-(3,3-diphenylpropyl)-1-(3-(3-methylpiperazin-1-yl)-3-oxopropyl)urea] | 1 to 5 |
| O=C(O)CCN(CCC(c1ccccc1)c1ccccc1)C(=O)Nc1nc(-c2ccccc2)cs1 [Example 126, 3-(1-(3,3-diphenylpropyl)-3-(4-phenylthiazol-2-yl)ureido)propanoic acid] | 1 to 5 |
| CS(=O)(=O)Nc1ccc(-c2nc(NC(=O)N(CCCO)CCC(c3ccccc3)c3ccccc3)sc2Cl)cc1 [Example 134, 3-(5-chloro-4-(4-(methylsulfonamido)phenyl)thiazol-2-yl)-1-(3,3-diphenylpropyl)-1-(3-hydroxypropyl)urea] | < 0.1 |
| CS(=O)(=O)Nc1ccc(-c2nc(NC(=O)N(CCN)CCC(c3ccccc3)c3ccccc3)sc2Cl)cc1 [Example 135, 1-(2-aminoethyl)-3-(5-chloro-4-(4-(methylsulfonamido)phenyl)thiazol-2-yl)-1-(3,3-diphenylpropyl)urea] | < 0.1 |
| CS(=O)(=O)Nc1ccc(-c2nc(NC(=O)N(CCC(c3ccccc3)c3ccccc3)CCS(N)(=O)=O)sc2Cl)cc1 [Example 136, 2-[{[(5-chloro-4-{4-[(methylsulfonyl)amino]phenyl}-1,3-thiazol-2-yl)amino]carbonyl}(3,3-diphenylpropyl)amino]ethanesulfonamide] | < 0.1 |
| CSCCN(CCC(c1ccccc1)c1ccccc1)C(=O)Nc1nc(-c2ccc(NS(C)(=O)=O)cc2)c(Cl)s1 [Example 137, 3-(5-chloro-4-(4-(methylsulfonamido)phenyl)thiazol-2-yl)-1-(3,3-diphenylpropyl)-1-(2-(methylthio)ethyl)urea] | < 0.1 |
| CSCCCN(CCC(c1ccccc1)c1ccccc1)C(=O)Nc1nc(-c2ccc(NS(C)(=O)=O)cc2)c(Cl)s1 [Example 138, 3-(5-chloro-4-(4-(methylsulfonamido)phenyl)thiazol-2-yl)-1-(3,3-diphenylpropyl)-1-(3-(methylthio)propyl)urea] | < 0.1 |
| CS(=O)(=O)NCCN(CCC(c1ccccc1)c1ccccc1)C(=O)Nc1nc(-c2ccc(NS(C)(=O)=O)cc2)c(Cl)s1 [Example 139, 3-(5-chloro-4-(4-(methylsulfonamido)phenyl)thiazol-2-yl)-1-(3,3-diphenylpropyl)-1-(2-(methylsulfonamido)ethyl)urea] | < 0.1 |
| CS(=O)(=O)Nc1ccc(-c2nc(NC(=O)N(CCN[C@@H]3CCCNC3)CCC(c3ccccc3)c3ccccc3)sc2Cl)cc1 [Example 140, (R)-3-(5-chloro-4-(4-(methylsulfonamido)phenyl)thiazol-2-yl)-1-(3,3-diphenylpropyl)-1-(2-(piperidin-3-ylamino)ethyl)urea] | < 0.1 |
| CS(=O)(=O)Nc1ccc(-c2nc(NC(=O)N(CCN[C@H]3CCCNC3)CCC(c3ccccc3)c3ccccc3)sc2Cl)cc1 [Example 141, (S)-3-(5-chloro-4-(4-(methylsulfonamido)phenyl)thiazol-2-yl)-1-(3,3-diphenylpropyl)-1-(2-(piperidin-3-ylamino)ethyl)urea] | < 0.1 |
| O=C1CC[C@H](NCCN(CCC(c2ccccc2)c2ccccc2)C(=O)Nc2nc(-c3ccccc3)c(Cl)s2)CN1 [Example 142, (S)-3-(5-chloro-4-phenylthiazol-2-yl)-1-(3,3-diphenylpropyl)-1-(2-(6-oxopiperidin-3-ylamino)ethyl)urea] | < 0.1 |

Further lines, results first:

| EC50 [µM] | Compound |
| --- | --- |
| < 0.1 | NS(=O)(=O)c1ccc(-c2csc(NC(=O)N(CCCC(=O)O)CCC(c3ccccc3)c3ccccc3)n2)cc1 [Example 124] |
| < 0.1 | O=C(NCCCCN(CCC(c1ccccc1)c1ccccc1)C(=O)Nc1nc2ccccc2s1)C1CCNCC1 [Example 127, 3-(benzo[d]thiazol-2-yl)-1-(3,3-diphenylpropyl)-1-(4-(piperidine-4-carboxamido)butyl)urea] |
| < 0.1 | O=C(NCCCCN(CCC(c1ccccc1)c1ccccc1)C(=O)Nc1nc2ccccc2s1)C1CCCCN1 (stereo not drawn) [Example 128, 3-(benzo[d]thiazol-2-yl)-1-(3,3-diphenylpropyl)-1-(4-(piperidine-2-carboxamido)butyl)urea] |
| < 0.1 | O=C(NCCN(CCC(c1ccccc1)c1ccccc1)C(=O)Nc1nc2ccccc2s1)C1CCCNC1 (stereo not drawn) [Example 129, 3-(benzo[d]thiazol-2-yl)-1-(3,3-diphenylpropyl)-1-(2-(piperidine-3-carboxamido)ethyl)urea] |
| < 0.1 | CS(=O)(=O)Nc1ccc(-c2csc(NC(=O)N(CCNC(=O)C3CCCNC3)CCC(c3ccccc3)c3ccccc3)n2)cc1 (stereo not drawn) [Example 130, 1-(3,3-diphenylpropyl)-3-(4-(4-(methylsulfonamido)phenyl)thiazol-2-yl)-1-(2-(piperidine-3-carboxamido)ethyl)urea] |
| < 0.1 | CS(=O)(=O)Nc1ccc(-c2nc(NC(=O)N(CCNC(=O)C3CCCNC3)CCC(c3ccccc3)c3ccccc3)sc2Cl)cc1 (stereo not drawn) [Example 131, 3-(5-chloro-4-(4-(methylsulfonamido)phenyl)thiazol-2-yl)-1-(3,3-diphenylpropyl)-1-(2-(piperidine-3-carboxamido)ethyl)urea] |
| < 0.1 | CS(=O)(=O)Nc1ccc(-c2nc(NC(=O)N(CCOC(N)=O)CCC(c3ccccc3)c3ccccc3)sc2Cl)cc1 [Example 132, 2-(3-(5-chloro-4-(4-(methylsulfonamido)phenyl)thiazol-2-yl)-1-(3,3-diphenylpropyl)ureido)ethyl carbamate] |
| < 0.1 | CS(=O)(=O)Nc1ccc(-c2nc(NC(=O)N(CCO)CCC(c3ccccc3)c3ccccc3)sc2Cl)cc1 [Example 133, 3-(5-chloro-4-(4-(methylsulfonamido)phenyl)thiazol-2-yl)-1-(3,3-diphenylpropyl)-1-(2-hydroxyethyl)urea] |

From patent US20080125424A1, “Derivatives of urea and related diamines, methods for their manufacture, and uses therefor” (priority 2006, published 2008)
